Reference: PMC1888807 (2007)

Legend:
[1] = tested on: H24 (DNA, G4) TTAGGGTTAGGGTTAGGGTTAGGG; assay: CD melting at 295 nm; conditions: 150 mM Na+; 10 mM Tris-HCl pH 7.5; BMVC:H24 molar ratio 5
[2] = tested on: H78 (DNA, G4) TTAGGGTTAGGGTTAGGGTTAGGGTTAGGGTTAGGGTTAGGGTTAGGGTTAGGGTTAGGGTTAGGGTTAGGGTTAGGG; assay: melting; conditions: 150 mM Na+; 10 mM Tris-HCl pH 7.5; BMVC:H78 molar ratio 10; ~51 to ~68 °C

- melting temperature increase [1]: 18 °C
- melting temperature increase [2]: ~ 17 °C
SMILES: C[n+]1ccc(C=Cc2ccc3[nH]c4ccc(C=Cc5cc[n+](C)cc5)cc4c3c2)cc1
